The source of these data is US20230330059A1, “3-PHENYL-2H-CHROMENE DERIVATIVE AND PHARMACEUTICAL COMPOSITION FOR PREVENTING OR TREATING ALZHEIMER'S, CONTAINING SAME” (NEUROBIONET, INC., priority 2020, published 2023).

Test [1] has as its target T1, Aβ42 (Homo sapiens, UniProt P05067).
T1 construct: 1,1,1,3,3,3-hexafluoro-2-propanol-treated Aβ42 (# A-1163-1, rPeptide); purchased rPeptide A-1163-1
Put plainly: Thioflavin T (ThT) assay of Aβ fibrosis. The following applies: ThT fluorescence, 37° C., 180 minutes; compared to negative control and Daidzein or Equol; FIG. 1. Type of test: biochemical. The procedure:
ThT assay was used to examine whether the drugs have an inhibitory activity against the fibrosis of Aβ. Lyophilized AggreSure AβAS-72216, AnaSpec) was dissolved in cold Tris buffered saline (TBS; pH 7.2) to prepare a 160 µg/mL Aβ solution. The solution was aliquoted into 1.5 mL tubes and stored at -80° C. until use. ThT (# T3516, Sigma-Aldrich) and drug candidates were dissolved in TBS to form a final concentration of 500 µM. The diluted aggregates were added to […] black plates (Nunc # 242764), mixed with ThT and drug candidates, and incubated at 37° C. for 180 minutes. Fluorescence signals were measured every 5 minutes using a plate reader (Victor3, PerkinElmer).

In a further test the test system is IL-6. Put plainly: IL-6 production (ELISA) in LPS-treated BV2 cells. Type of test: cell-based, mouse. Particulars: 5 µM, LPS (100 ng/ml) 24 hours, FIG. 10a. How it is done: BV2 cells were seeded at a density of 4x10^5 cells/well into 96-well plates and stabilized for 24 hours. Thereafter, the cells were treated with 5 µM of daidzein, o-desmethylangolensin, S-equal, SPA1413, or SPA1426 for 30 minutes and then with LPS (100 ng/ml) for 24 hours at 37° C. The culture medium was collected and quantitatively measured for IL-6 and TNF-a released to the BV2 culture supernatant, using the enzyme immunoassay method […] Enzyme-Linked Immuno Assay (ELISA) kit (R&D systems, Minneapolis, MN, USA). The IL-6 and TNF-a releases from the groups treated with the samples were evaluated relative to that from the LPS-treated group, which was set to be 100%, and the results are depicted in FIGS. 10a and 10b.
Background: In an ELISA, binding on a coated surface is turned into a signal by an enzyme label.

Another test relates to COX-2. Put plainly: COX-2 protein expression (western blot) in LPS-treated BV2 cells. Format: cell-based, mouse. Particulars: 5 µM, LPS (100 ng/ml) 24 hours, FIG. 11a. The procedure:
(§1) BV2 cells were aliquoted at a density of 1x10^6 cells/well into 60 mm dishes and stabilized for 24 hours. Thereafter, the cells were treated with 5 µM of S-equal, SPA1413, or SPA1426 for 30 minutes and then with LPS (100 ng/ml) for 24 hours at 37° C. After being cultured to reach 100% confluence, the cells were washed with PBS and lysed with a lysis buffer (PRO-PREP™ Protein Extraction Solution, Intron Biotechnology, Seongnam, Korea). With bovine serum albumin (BSA) serving as a standard, the protein contents of the lysate supernatants were measured by Bio-Rad Protein Assay (Bio-Rad, California, USA) to determine the total protein content in each sample. Afterwards, each of the samples was loaded in a protein amount of 30 µg on a 10-12% SDS-PAGE gel and run for electrophoresis. The electrophorized proteins were transferred to a PVDF membrane which was then blocked with 5% skim milk and incubated with antibodies to COX-2 or iNOS (Cell Signaling Technologies, Massachusetts, USA). Detection was conducted with a ChemiDoc XRS+ imaging system (Bio-Rad, CA, USA).

A further test relates to NGF release in C6 cells. The experiment in a line: Nerve growth factor (NGF) release in C6 cells (ELISA). Type of test: cell-based, rat. The following applies: 5 µM, 24 hours, compared to the normal group, FIG. 13. How it is done: C6 cells were seeded at a density of 4x10^5 cells/well into 96-well plates and stabilized for 24 hours. Thereafter, the cells were treated with 5 µM of daidzein, o-desmethylangolensin, S-equal, SPA1413, or SPA1426 for 24 hours. The culture medium was collected and quantitatively measured for NGF released to the C6 culture supernatant using the enzyme immunoassay method Competitive Enzyme-Linked Immuno Assay (ELISA) kit (R&D systems, Minneapolis, MN, USA). The NGF releases from the groups treated with the samples were evaluated relative to that from the normal group, which was set to be 100%, and the results are depicted in FIG. 13.

For test [2], the target named is T1, Aβ42. Put plainly: Multimer detection system (MDS) assay of Aβ42 oligomerization. Format: biochemical. The following applies: compounds 100 µM, Aβ42 200 µg/mL; compared to negative control and Daidzein or Equol; FIG. 2. The procedure: The drugs selected on the basis of the ThT assay results were evaluated for inhibitory activity against the oligomerization of Aβ42, using a multimer detection system (MDS) assay. Immediately after being dissolved in 1% NH4OH (# 221228, Sigma-Aldrich), 1,1,1,3,3,3-hexafluoro-2-propanol-treated Aβ42 (# A-1163-1, rPeptide) was diluted in 500 µL of phosphate-buffered saline (PBS; pH 7.5), aliquoted into 1.5-mL tubes, and stored at -80° C. until use. Aβ42 and the compounds were mixed with PBS to make final concentrations of 200 µg/mL and 100 µM, respectively, and incubated at room temperature. Aggregation of Aβ42 was terminated by maintaining at -80° C.
After the reaction between each drug and Aβ42, the oligomeric form of Aβ42 was measured for each time to measure inhibitory effects on the oligomer.

Another test deals with p38. Put plainly: p38 protein expression (western blot) in LPS-treated BV2 cells. Format: cell-based, mouse. Particulars: 5 µM, compared to the LPS-treated group, FIG. 12b. The procedure:
as §1, with “JNK” for “COX-2”, “p38” for “iNOS”
(In general: A western blot detects proteins with antibodies after separation by electrophoresis.)

Another test has as its system JNK. Put plainly: JNK protein expression (western blot) in LPS-treated BV2 cells. Format: cell-based, mouse. The following applies: 5 µM, compared to the LPS-treated group, FIG. 12a. The procedure: as §1, with “JNK” for “COX-2”, “p38” for “iNOS”

T1 sequence (P05067 672-713 limits assumed): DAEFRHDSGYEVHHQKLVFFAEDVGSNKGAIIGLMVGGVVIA

For the compound `Oc1ccc(C2=Cc3ccc(O)cc3OC2)cc1` [SPA1413, 3-(4-Hydroxyphenyl)-2H-chromen-7-ol], at Aβ42 [1], the “inhibition of Aβ42 fibrosis” value is “showed the effect of inhibiting Aβ42 fibrosis”. For the same compound, the IL-6 production entry with IL-6 was “significantly decreased”. Further, the “expression level of COX-2” value in the test with COX-2 is on record as “significantly decreased”. For the same compound, the NGF content entry in the test with NGF release in C6 cells is “significantly increased”. Also, the “inhibition of Aβ42 oligomerization” value at Aβ42 [2] was “exhibited inhibitory effects on Aβ42 oligomerization”. Further, the “expression level of P38 protein” value in the test with p38 was “decreased”. For the same compound, the “expression level of JNK protein” value in the test with JNK is “decreased”.
In the case of `CCCC(=O)Oc1ccc(C2=Cc3ccc(OC(=O)CCC)cc3OC2)cc1` [SPA1426, 4-(7-(butyryloxy)-2H-chromen-3-yl)phenyl butyrate], the “inhibition of Aβ42 fibrosis” value against Aβ42 [1] is on record as “showed the effect of inhibiting Aβ42 fibrosis”. Moreover, the IL-6 production result in the test on IL-6 was “significantly decreased”. For the same compound, in the test with COX-2, the “expression level of COX-2” value is listed as “significantly decreased”. Further, the NGF content entry in the test with NGF release in C6 cells is given as “significantly increased”. In addition, the “inhibition of Aβ42 oligomerization” value against Aβ42 [2] is given as “exhibited inhibitory effects on Aβ42 oligomerization”. Besides, the “expression level of P38 protein” value with p38 is “decreased”. The “expression level of JNK protein” value in the test on JNK was “decreased”.
